# Measured values published in patent US11117900B2 (Vertex Pharmaceuticals Incorporated, priority 2012, dated 2021).
# System: HCT116 colorectal cancer cells
# Test: Cisplatin sensitization assay (96 h MTS cell viability);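 note: compound concentration needed to lower the IC50 of Cisplatin alone by a set fold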
# Format: cell-based
# Conditions: Cisplatin sensitization value
# In short: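 HCT116 cells were dosed simultaneously with compound and cisplatin as a full matrix of 2-fold serial dilutions from 10 μM top final concentration. Incubation was 96 h at 37° C., 5% CO2, followed by 1 h with MTS reagent for the viability read-out. Sensitization values were binned into +++, ++ and + categories.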
row,Compound,Cisplatin Sensitization Assay
1,"Nc1nn2cc(F)cnc2c1C(=O)Nc1cnccc1-c1ccc(C(=O)N2CCN3CCC2CC3)cc1 [I-C-48, N-(4-(4-(1,4-diazabicyclo[3.2.2]nonane-4-carbonyl)phenyl)pyridin-3-yl)-2-amino-6-fluoropyrazolo[1,5-a]pyrimidine-3-carboxamide]",+++ (Compounds with a Cisplatin sensitization value of <0.02 μM are marked with “+++.”)
2,"Nc1nn2cc(F)cnc2c1C(=O)Nc1cncc(F)c1N1CC(=O)N2CCCC2C1 (centres unmarked) [I-N-232, 2-amino-6-fluoro-N-(5-fluoro-4-(4-oxohexahydropyrrolo[1,2-a]pyrazin-2(1H)-yl)pyridin-3-yl)pyrazolo[1,5-a]pyrimidine-3-carboxamide]",++ (Compounds with a Cisplatin sensitization value >0.02 μM but <0.2 μM are marked with “++.”)
3,"CN(C)C1CCCN(c2ccncc2NC(=O)c2c(N)nn3cc(Cl)cnc23)C1 (centres unmarked) [I-N-40, 2-amino-6-chloro-N-(4-(3-(dimethylamino)piperidin-1-yl)pyridin-3-yl)pyrazolo[1,5-a]pyrimidine-3-carboxamide]",++ (Compounds with a Cisplatin sensitization value >0.02 μM but <0.2 μM are marked with “++.”)
4,"Nc1nn2cc(F)cnc2c1C(=O)Nc1cncc(F)c1N1CCC(C(=O)N2CCC2)CC1 [I-G-8, 2-amino-N-(4-(4-(azetidine-1-carbonyl)piperidin-1-yl)-5-fluoropyridin-3-yl)-6-fluoropyrazolo[1,5-a]pyrimidine-3-carboxamide]",+++ (Compounds with a Cisplatin sensitization value of <0.02 μM are marked with “+++.”)
5,"Nc1nn2cc(F)cnc2c1C(=O)Nc1cnccc1OC1COC1 [I-O-92, 2-amino-6-fluoro-N-(4-(oxetan-3-yloxy)pyridin-3-yl)pyrazolo[1,5-a]pyrimidine-3-carboxamide]",+++ (Compounds with a Cisplatin sensitization value of <0.02 μM are marked with “+++.”)
6,"CN(C)C(=O)C1CCN(c2c(F)cncc2NC(=O)c2c(N)nn3cc(F)cnc23)CC1 [I-G-29, 2-amino-N-(4-(4-(dimethylcarbamoyl)piperidin-1-yl)-5-fluoropyridin-3-yl)-6-fluoropyrazolo[1,5-a]pyrimidine-3-carboxamide]",+++ (Compounds with a Cisplatin sensitization value of <0.02 μM are marked with “+++.”)
7,"CN1CCN(C(=O)c2ccc(-c3ccncc3NC(=O)c3c(N)nn4cc(F)cnc34)cn2)CC1 [I-C-19, 2-amino-6-fluoro-N-(6-(4-methylpiperazine-1-carbonyl)-[3,4′-bipyridin]-3′-yl)pyrazolo[1,5-a]pyrimidine-3-carboxamide]",++ (Compounds with a Cisplatin sensitization value >0.02 μM but <0.2 μM are marked with “++.”)
8,"Nc1nn2cc(F)cnc2c1C(=O)Nc1cnccc1N1CCC2(CC1)COC2 [I-N-226, N-(4-(2-oxa-7-azaspiro[3.5]nonan-7-yl)pyridin-3-yl)-2-amino-6-fluoropyrazolo[1,5-a]pyrimidine-3-carboxamide]",+++ (Compounds with a Cisplatin sensitization value of <0.02 μM are marked with “+++.”)
9,"CN1CCC(c2ccncc2NC(=O)c2c(N)nn3cc(C(C)(C)C#N)cnc23)CC1 [I-C-23, 2-amino-6-(2-cyanopropan-2-yl)-N-(4-(1-methylpiperidin-4-yl)pyridin-3-yl)pyrazolo[1,5-a]pyrimidine-3-carboxamide]",+ (Compounds with a Cisplatin sensitization value >0.2 μM but <5 μM are marked with “+.”)
10,"Nc1nn2cc(F)cnc2c1C(=O)Nc1cncc(C2CC2)c1N1CCN([C@H]2CCOC2)CC1 [I-N-120, (S)-2-amino-N-(5-cyclopropyl-4-(4-(tetrahydrofuran-3-yl)piperazin-1-yl)pyridin-3-yl)-6-fluoropyrazolo[1,5-a]pyrimidine-3-carboxamide]",+++ (Compounds with a Cisplatin sensitization value of <0.02 μM are marked with “+++.”)
11,"CC(C)(C)NC(=O)C1CCN(c2c(F)cncc2NC(=O)c2c(N)nn3cc(F)cnc23)CC1 [I-G-19, 2-amino-N-(4-(4-(tert-butylcarbamoyl)piperidin-1-yl)-5-fluoropyridin-3-yl)-6-fluoropyrazolo[1,5-a]pyrimidine-3-carboxamide]",++ (Compounds with a Cisplatin sensitization value >0.02 μM but <0.2 μM are marked with “++.”)
12,"Nc1nn2cc(Cl)cnc2c1C(=O)Nc1cnccc1O[C@H]1CCNC1 [I-O-76, (S)-2-amino-6-chloro-N-(4-(pyrrolidin-3-yloxy)pyridin-3-yl)pyrazolo[1,5-a]pyrimidine-3-carboxamide]",++ (Compounds with a Cisplatin sensitization value >0.02 μM but <0.2 μM are marked with “++.”)
13,"N#CCc1cnc2c(C(=O)Nc3cnccc3OCCN)c(N)nn2c1 [I-O-83, 2-amino-N-(4-(2-aminoethoxy)pyridin-3-yl)-6-(cyanomethyl)pyrazolo[1,5-a]pyrimidine-3-carboxamide]",+++ (Compounds with a Cisplatin sensitization value of <0.02 μM are marked with “+++.”)
14,"CCN1CCCC1C(=O)N1CCN(c2c(F)cncc2NC(=O)c2c(N)nn3cc(F)cnc23)CC1 (centres unmarked) [I-N-185, 2-amino-N-(4-(4-(1-ethylpyrrolidine-2-carbonyl)piperazin-1-yl)-5-fluoropyridin-3-yl)-6-fluoropyrazolo[1,5-a]pyrimidine-3-carboxamide]",++ (Compounds with a Cisplatin sensitization value >0.02 μM but <0.2 μM are marked with “++.”)
15,"Nc1nn2cc(Cl)cnc2c1C(=O)Nc1cnccc1N1CCN2CCC1CC2 [I-N-56, N-(4-(1,4-diazabicyclo[3.2.2]nonan-4-yl)pyridin-3-yl)-2-amino-6-chloropyrazolo[1,5-a]pyrimidine-3-carboxamide]",++ (Compounds with a Cisplatin sensitization value >0.02 μM but <0.2 μM are marked with “++.”)
16,"COCC1CN(c2ccncc2NC(=O)c2c(N)nn3cc(Cl)cnc23)CCN1C (centres unmarked) [I-N-47, 2-amino-6-chloro-N-(4-(3-(methoxymethyl)-4-methylpiperazin-1-yl)pyridin-3-yl)pyrazolo[1,5-a]pyrimidine-3-carboxamide]",++ (Compounds with a Cisplatin sensitization value >0.02 μM but <0.2 μM are marked with “++.”)
17,"CCn1cncc1-c1ccncc1NC(=O)c1c(N)nn2cc(F)cnc12 [I-C-80, 2-amino-N-(4-(1-ethyl-1H-imidazol-5-yl)pyridin-3-yl)-6-fluoropyrazolo[1,5-a]pyrimidine-3-carboxamide]",+++ (Compounds with a Cisplatin sensitization value of <0.02 μM are marked with “+++.”)
18,"Nc1nn2cc(F)cnc2c1C(=O)Nc1cnccc1-c1ccc(C(=O)N2CCC(N3CCC3)CC2)nc1 [I-C-54, 2-amino-N-(6-(4-(azetidin-1-yl)piperidine-1-carbonyl)-[3,4′-bipyridin]-3′-yl)-6-fluoropyrazolo[1,5-a]pyrimidine-3-carboxamide]",+++ (Compounds with a Cisplatin sensitization value of <0.02 μM are marked with “+++.”)
19,"CC1(C)CN(c2ccncc2NC(=O)c2c(N)nn3cc(F)cnc23)CCS1(=O)=O [I-N-252, 2-amino-N-(4-(2,2-dimethyl-1,1-dioxidothiomorpholino)pyridin-3-yl)-6-fluoropyrazolo[1,5-a]pyrimidine-3-carboxamide]",+++ (Compounds with a Cisplatin sensitization value of <0.02 μM are marked with “+++.”)
20,"Nc1nn2cc(F)cnc2c1C(=O)Nc1cncc(F)c1N1CCN(C(=O)C2CNCCO2)CC1 (centres unmarked) [I-N-172, 2-amino-6-fluoro-N-(5-fluoro-4-(4-(morpholine-2-carbonyl)piperazin-1-yl)pyridin-3-yl)pyrazolo[1,5-a]pyrimidine-3-carboxamide]",+++ (Compounds with a Cisplatin sensitization value of <0.02 μM are marked with “+++.”)
21,"CN(C)C(=O)[C@H]1CC[C@@H](Oc2ccncc2NC(=O)c2c(N)nn3cc(F)cnc23)CC1 [I-O-17, 2-amino-N-(4-(((1s,4s)-4-(dimethylcarbamoyl)cyclohexyl)oxy)pyridin-3-yl)-6-fluoropyrazolo[1,5-a]pyrimidine-3-carboxamide]",+++ (Compounds with a Cisplatin sensitization value of <0.02 μM are marked with “+++.”)
22,"CS(=O)(=O)C1CCN(c2c(F)cncc2NC(=O)c2c(N)nn3cc(F)cnc23)CC1 [I-N-165, 2-amino-6-fluoro-N-(5-fluoro-4-(4-(methylsulfonyl)piperidin-1-yl)pyridin-3-yl)pyrazolo[1,5-a]pyrimidine-3-carboxamide]",+++ (Compounds with a Cisplatin sensitization value of <0.02 μM are marked with “+++.”)
23,"CN1CC2(CCN(c3c(F)cncc3NC(=O)c3c(N)nn4cc(F)cnc34)CC2)OC1=O [I-N-229, 2-amino-6-fluoro-N-(5-fluoro-4-(3-methyl-2-oxo-1-oxa-3,8-diazaspiro[4.5]decan-8-yl)pyridin-3-yl)pyrazolo[1,5-a]pyrimidine-3-carboxamide]",+++ (Compounds with a Cisplatin sensitization value of <0.02 μM are marked with “+++.”)
24,"Nc1nn2cc(F)cnc2c1C(=O)Nc1cnccc1O[C@@H]1CN2CCC1CC2 [I-O-10, (S)-2-amino-6-fluoro-N-(4-(quinuclidin-3-yloxy)pyridin-3-yl)pyrazolo[1,5-a]pyrimidine-3-carboxamide]",+++ (Compounds with a Cisplatin sensitization value of <0.02 μM are marked with “+++.”)
25,"CN1CC[C@H](Oc2ccncc2NC(=O)c2c(N)nn3cc(F)cnc23)C1 [I-O-1, (S)-2-amino-6-fluoro-N-(4-((1-methylpyrrolidin-3-yl)oxy)pyridin-3-yl)pyrazolo[1,5-a]pyrimidine-3-carboxamide]",+++ (Compounds with a Cisplatin sensitization value of <0.02 μM are marked with “+++.”)
26,"CCOc1ccncc1NC(=O)c1c(N)nn2cc(F)cnc12 [I-O-14, 2-amino-N-(4-ethoxypyridin-3-yl)-6-fluoropyrazolo[1,5-a]pyrimidine-3-carboxamide]",+++ (Compounds with a Cisplatin sensitization value of <0.02 μM are marked with “+++.”)
